Reference: patent publication US11179412B2, “Methods of treating conditions involving elevated inflammatory response” (University of Pittsburgh—Of the Commonwealth System of …, priority 2017, dated 2021)
Counter-ions that a name gives are not always drawn.

Each compound was assayed on STING activation (IFNβ release) in iBMDMs (assay: IFNβ release ELISA after STING ligand (or LPS) stimulation, iBMDMs). Conditions: iBMDMs; 3′3′-cGAMP 10 μg/ml, 16 hours; compound 10 μM.
Format: cell-based, mouse
Source text: Commercially available enzyme-linked immunosorbent assay (ELISA) kits were used to measure the concentrations of mouse IFNβ (Thermo Fisher Scientific) or human IFNβ (Thermo Fisher Scientific) in culture medium according to the manufacturer's instructions. […]

| Compound | fold increase in IFN-β release [fold] |
| --- | --- |
| O=C(/C=C/c1cccc(S(=O)(=O)Nc2ccccc2)c1)NO [Belinostat (PXD101), Belinostat] | 0.70 |
| COc1c(O)cc2c(c1O)[C@@H]1O[C@H](CO)[C@@H](O)[C@H](O)[C@H]1OC2=O [Bergenin] | 0.57 |
| CC[C@H](NC(=O)[C@H](C)NC)C(=O)N1C[C@@H](O)C[C@H]1Cc1c(-c2[nH]c3cc(F)ccc3c2C[C@@H]2C[C@H](O)CN2C(=O)[C@H](CC)NC(=O)[C@H](C)NC)[nH]c2cc(F)ccc12 [Birinapant] | 1.15 |
| CC(C)NCC(O)COc1ccc(COCCOC(C)C)cc1 (stereo not drawn) [Bisoprolol fumarate] | 0.70 |
| CC(C)C[C@H](NC(=O)[C@H](Cc1ccccc1)NC(=O)c1cnccn1)B(O)O [Bortezomib (PS-341), Bortezomib] | 0.37 |
| COc1ccccc1Oc1c(NS(=O)(=O)c2ccc(C(C)(C)C)cc2)nc(-c2ncccn2)nc1OCCO [Bosentan Hydrate] | 1.20 |
| COc1cc(Nc2c(C#N)cnc3cc(OCCCN4CCN(C)CC4)c(OC)cc23)c(Cl)cc1Cl [Bosutinib (SKI-606), Bosutinib] | 1.78 |
| CCN[C@H]1CN(CCCOC)S(=O)(=O)c2sc(S(N)(=O)=O)cc21 [Brinzolamide] | 1.93 |
| CCCCN1CCCCC1C(=O)Nc1c(C)cccc1C (stereo not drawn) [Bupivacaine HCl] | 0.42 |
| NC1(Cc2ccc(Cl)cc2)CCN(c2ncnc3[nH]ccc23)CC1 [CCT128930] | 1.46 |
| CC(C)C[C@H](NC(=O)[C@@H](NC(=O)c1cccc(-c2ccccc2)n1)[C@@H](C)O)B(O)O [CEP-18770 (Delanzomib), Delanzomib] | 0.82 |
| Cc1c(NC(=O)c2ccc(C(C)(C)C)cc2)cccc1-c1cn(C)c(=O)c(Nc2ccc(C(=O)N3CCOCC3)cc2)n1 [CG11746] | 0.16 |
| O=C(NC(NC(=S)Nc1ccc(F)c([N+](=O)[O-])c1)C(Cl)(Cl)Cl)C(c1ccccc1)c1ccccc1 (stereo not drawn) [CGK 733] | 2.50 |
| Nc1ncnc2n[nH]c(Nc3ccc(F)cc3)c12 [CGP 57380] | 0.54 |
| CCNC(=O)[C@H]1O[C@@H](n2cnc3c(N)nc(NCCc4ccc(CCC(=O)O)cc4)nc32)[C@H](O)[C@@H]1O [CGS 21680 HCl] | 2.00 |
| O=c1[nH]c2ccc(Cl)cc2c(N[C@@H]2CN3CCC2CC3)c1-c1nc2ccccc2[nH]1 [CHIR-124] | 1.30 |
| Cc1[nH]c2ccccc2c1CCNC(=O)c1cccs1 [CK-636] | 2.06 |
| C=CC(=O)Nc1cccc(Nc2nc(Nc3ccc(Oc4ccnc(C(=O)NC)c4)cc3)ncc2F)c1 [CNX-774] | 0.73 |
| C=CC(=O)Nc1cccc(Nc2nc(Nc3ccc(NC4CN(CCF)C4)cc3OC)ncc2C(F)(F)F)c1 [CNX-2006] | 1.93 |
| CN(C)C(=O)[C@H](O)[C@H](Cc1ccccc1)NC(=O)c1cc2cc(Cl)ccc2[nH]1 [CP-91149] | 0.14 |
| COCCOc1ccc2c(c1)ncn2-c1ccc2cccc(N3CCC(N)CC3)c2n1 [CP-673451] | 0.27 |
| O=C(O)c1cc2cccc([N+](=O)[O-])c2[nH]1 [CRT0044876] | 2.75 |
| O=C(O)c1cc(I)ccc1NC(=O)[C@H](Cc1ccccc1)NCc1ccccc1 [CW069] | 4.03 |
| O=C(/C=C/c1ccc(O)c(O)c1)OCCc1ccccc1 [Caffeic Acid Phenethyl Ester] | 0.44 |

| Compound | fold increase in IFN-β release [fold] |
| --- | --- |
| Cc1ccc([C@@H]2O[C@H](CO)[C@@H](O)[C@H](O)[C@H]2O)cc1Cc1ccc(-c2ccc(F)cc2)s1 [Canagliflozin] | 1.58 |
| CCOc1nc2cccc(C(=O)O)c2n1Cc1ccc(-c2ccccc2-c2nnn[nH]2)cc1 [Candesartan] | 2.31 |
| C[C@H](CS)C(=O)N1CCC[C@H]1C(=O)O [Captopril] | 2.62 |
| COc1ccccc1OCCNCC(O)COc1cccc2[nH]c3ccccc3c12 (stereo not drawn) [Carvedilol] | 1.87 |
| Cc1ccc(-c2cc(C(F)(F)F)nn2-c2ccc(S(N)(=O)=O)cc2)cc1 [Celecoxib] | 0.76 |
| COc1ccc([C@]2(C#N)CC[C@@H](C(=O)O)CC2)cc1OC1CCCC1 [Cilomilast] | 2.08 |
| C[C@@H](NCCCc1cccc(C(F)(F)F)c1)c1cccc2ccccc12 [Cinacalcet HCl] | 0.55 |
| CN1CCC[C@@H]1CCO[C@](C)(c1ccccc1)c1ccc(Cl)cc1 [Clemastine Fumarate] | 1.32 |
| C=C1C(=O)O[C@@H]2/C=C(\C)CC/C=C(\C)CC[C@@H]12 [Costunolide] | 0.37 |
| CC1(COc2ccc3c(c2)ncn3-c2ccc3cccc(N4CCC(N)CC4)c3n2)COC1 [Crenolanib (CP-868596), Crenolanib] | 0.32 |
| C[C@H]1COC2=C1C(=O)C(=O)c1c2ccc2c1CCCC2(C)C [Cryptotanshinone] | 0.17 |
| CC(=O)O[C@]1(C(C)=O)CC[C@H]2[C@@H]3C=C(Cl)C4=CC(=O)[C@@H]5C[C@@H]5[C@]4(C)[C@H]3CC[C@@]21C [Cyproterone Acetate] | 1.24 |
| c1ccc(CNc2nc(NCc3ccccc3)c3ccccc3n2)cc1 [DBeQ] | 2.18 |
| CNC(=O)c1cc(Oc2ccc(NC(=O)Nc3cc(C(C)(C)C)nn3-c3ccc4ncccc4c3)c(F)c2)ccn1 [DCC-2036 (Rebastinib), Rebastinib] | 1.71 |
| CC(C)Oc1ccc(-c2cnc3c(-c4ccnc5ccccc45)cnn3c2)cc1 [DMH1] | 1.43 |
| Cc1ccc2c(=O)c3cccc(CC(=O)O)c3oc2c1C [DMXAA (Vadimezan), 5,6-dimethylxanthenone-4-acetic acid] | 3.23 |
| CC(C)(C)c1nc(-c2cccc(NS(=O)(=O)c3c(F)cccc3F)c2F)c(-c2ccnc(N)n2)s1 [Dabrafenib (GSK2118436), Dabrafenib] | 0.86 |
| CCC(CC)CC1(C(=O)Nc2ccccc2SC(=O)C(C)C)CCCCC1 [Dalcetrapib (JTT-705, RO4607381), Dalcetrapib] | 0.13 |
| CCOc1ccc(Cc2cc([C@@H]3O[C@H](CO)[C@@H](O)[C@H](O)[C@H]3O)ccc2Cl)cc1 [Dapagliflozin] | 1.57 |
| COc1cccc2c1C(=O)c1c(O)c3c(c(O)c1C2=O)C[C@@](O)(C(C)=O)C[C@@H]3O[C@H]1C[C@H](N)[C@H](O)[C@H](C)O1 [Daunorubicin HCl] | 0.11 |
| COc1cc2nc(N3CCN(C(=O)C4COc5ccccc5O4)CC3)nc(N)c2cc1OC (stereo not drawn) [Doxazosin Mesylate] | 0.69 |
| C[C@]12C=CC(=O)N[C@@H]1CC[C@@H]1[C@@H]2CC[C@]2(C)[C@@H](C(=O)Nc3cc(C(F)(F)F)ccc3C(F)(F)F)CC[C@@H]12 [Dutasteride] | 0.51 |
| O=C(N/N=C/c1ccc(O)c(O)c1)c1cc2ccccc2cc1O [Dynasore] | 1.62 |
| CC(C)C[C@H](NC(=O)[C@H]1O[C@@H]1C(=O)O)C(=O)NCCCCN=C(N)N [E-64] | 0.17 |
